Molecules are shown by their SMILES. Where two headings read alike, the source gives them in different places. Bounds are passed on as bounds.

Data set [1] has as its target T1, CDK2/cyclin E (Homo sapiens, UniProt P24941).
T1 construct: made in house; host or cells: Sf9 insect cells (baculovirus co-infection)
Kind of data set: CDK2/cyclin E kinase inhibition assay (histone H1, [γ-33P]ATP). The class given is biochemical. The note with it: for IC50: averaged from triplicates, 15 μM ATP. The protocol:
(§1) CDK1/cyclin B and CDK2/cyclin E kinases were produced in Sf9 insect cells coinfected with appropriate baculoviral constructs. The cells were harvested 70 h post infection, incubated in lysis buffer (50 mM Tris pH 7.4, 150 mM NaCl, 5 mM EDTA, 20 mM NaF, 1% Tween 20, 1 mM DTT, 0.1 mM PMSF, 0.5 μg/ml leupeptine, 1 μg/ml aprotonine) for 30 min on ice and the soluble fraction was recovered by centrifugation at 20.000 g for 10 min. The enzymes were purified on NiNTA column (Qiagen), stored at 4° C. and used within a week. To carry out the enzyme inhibition assays under linear conditions, the final point test system for kinase activity measurement was used. Kinase was added to reaction mixture in such a way as to obtain linear activity with respect to the concentration of enzyme and with respect to time. For determination of kinase inhibition the reaction mixture contained 1 mg/ml histone H1 (type III-S, Sigma) in the presence of 15 μM ATP, 0.05 μCi [γ-^33P]ATP and the tested compound in a final volume of 10 μl; all in reaction buffer (50 mM HEPES, 10 mM MgCl2, 5 mM EGTA, 10 mM 2-glycerolphosphate, 1 mM NaF, 1 mM DTT, pH 7.4). After 20 min incubation, the reactions were stopped by the addition of 5 μl of a 3% H3PO4, aliquots were spotted on P-81 phosphocellulose (Whatman, USA) that was subsequently washed 3× with 5% H3PO4 and finally air dried. The measurements of kinase inhibition employed digital image analyzer BAS-1800 (Fujifilm, Japan). Kinase activity was usually expressed as a percentage of maximum activity. […] For the purpose of kinetic analysis, the activity was expressed as arbitrary units (AU) of digital image analyzer signal.

Data set [2] has as its target T2, CDK1/cyclin B (Homo sapiens, UniProt P06493).
T2 construct: made in house; host or cells: Sf9 insect cells (baculovirus co-infection)
Kind of data set: CDK1/cyclin B kinase inhibition assay (histone H1, [γ-33P]ATP). The class given is biochemical. The following applies: averaged from triplicates; 15 μM ATP. As for the experimental part:
as §1

In data set [3] the test system is K562 (human chronic myeloblastic leukemia). Kind of data set: In vitro cytotoxicity, Calcein AM, 72 h. The class given is cell-based. The following applies: for IC50: read-out: IC50 (μM) K562; for % of viable cells K562: at 100 μM. The protocol:
(§2) Tested drugs were added to the cell cultures in six different concentration and kept at 37° C. and 5% CO2 for three days.
(§3) The cells, cultured in DMEM (supplemented with 10% fetal calf serum, 4 mM glutamine, 100 IU/ml penicillin, 100 μg/ml streptomycin) in a humidified CO2 incubator at 37° C., were redistributed into 96-well microtitre plates (10.000 cells per well). After 12 h preincubation, tested compounds in six-fold dilutions were added. Treatment of cells with the tested compounds (in the 1-100 μM range) lasted for 72 h.

Data set [4] has as its system G 361 (human malignant melanoma). Kind of data set: In vitro cytotoxicity, Calcein AM, 72 h. The note with it: for IC50: read-out: IC50 (μM) G361; for % of viable cells G361: at 100 μM. The class given is cell-based. As for the experimental part: as §2, §3
Data set [5] concerns MCF7 (human breast adenocarcinoma). Kind of data set: In vitro cytotoxicity, Calcein AM, 72 h. Format: cell-based. The note with it: for IC50: read-out: IC50 (μM) MCF7; for % of viable cells MCF7: at 100 μM. As for the experimental part: as §2, §3
Data set [6] has as its system HOS (human osteogenic sarcoma). Kind of data set: In vitro cytotoxicity, Calcein AM, 72 h. The class given is cell-based. The following applies: for IC50: read-out: IC50 (μM) HOS; for % of viable cells HOS: at 100 μM. The protocol:
as §2, §3

Data set [7] in a line: In vitro cytotoxicity, Calcein AM, 72 h. The following applies: human, at 100 μM. Format: cell-based, human. The protocol:
as §2, §3

Setting [8] is: G 361 cells (human malignant melanoma), 72 h, read-out: % of viable cells G361.
Where [9] appears, read: HOS cells (human osteogenic sarcoma), read-out: % of viable cells HOS.
[10] abbreviates: K562 cells (human chronic myeloblastic leukemia), 72 h, read-out: % of viable cells K562.
Setting [11] is: MCF7 cells (human breast adenocarcinoma), 72 h, read-out: % of viable cells MCF7.

T2 sequence (P06493 whole entry): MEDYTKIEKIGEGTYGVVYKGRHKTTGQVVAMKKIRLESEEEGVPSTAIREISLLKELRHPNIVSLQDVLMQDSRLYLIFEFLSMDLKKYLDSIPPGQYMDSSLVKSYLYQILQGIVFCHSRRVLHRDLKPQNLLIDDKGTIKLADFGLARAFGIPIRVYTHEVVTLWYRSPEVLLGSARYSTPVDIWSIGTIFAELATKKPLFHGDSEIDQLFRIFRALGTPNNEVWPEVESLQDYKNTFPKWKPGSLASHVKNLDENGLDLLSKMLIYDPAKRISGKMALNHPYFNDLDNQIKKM
T2 sequence (P14635 whole entry partner): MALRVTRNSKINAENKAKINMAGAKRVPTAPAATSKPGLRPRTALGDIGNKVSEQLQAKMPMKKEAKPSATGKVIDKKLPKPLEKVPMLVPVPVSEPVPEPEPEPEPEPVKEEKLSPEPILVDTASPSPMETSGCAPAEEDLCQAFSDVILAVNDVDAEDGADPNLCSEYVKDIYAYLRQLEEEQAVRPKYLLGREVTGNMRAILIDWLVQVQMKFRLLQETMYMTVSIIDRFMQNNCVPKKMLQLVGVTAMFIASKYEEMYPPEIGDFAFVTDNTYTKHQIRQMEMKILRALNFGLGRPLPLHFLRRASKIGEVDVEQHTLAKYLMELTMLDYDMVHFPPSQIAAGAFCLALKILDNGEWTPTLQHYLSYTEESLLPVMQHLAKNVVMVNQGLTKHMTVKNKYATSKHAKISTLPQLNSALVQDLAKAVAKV

A word on the IC50: it is the midpoint of a concentration-inhibition curve. For the compound `Nc1n[nH]c(N)c1N=Nc1ccccc1` [Compound 1b, 3,5-diamino-4-(phenyl)azo-pyrazole], the IC50 in data set [1] was 22 µM; in data set [2] it was 25 µM; in data set [3] (72 h, Calcein AM, triplicates), greater than 100 µM; in data set [4] (72 h, Calcein AM, triplicates), greater than 100 µM; in data set [5] (72 h, Calcein AM, triplicates), greater than 100 µM; in data set [6] (Calcein AM, triplicates), greater than 100 µM. For the same compound, the “% of viable cells K562” value in data set [3] (72 h) was “(90 ± 14%)”. Moreover, in data set [4] (72 h), the “% of viable cells G361” value is on record as “(75 ± 2%)”. The “% of viable cells MCF7” value in data set [5] (72 h) is reported as “(74 ± 5%)”. Besides, in data set [6], the “% of viable cells HOS” value is “(83 ± 8%)”.
For the compound `Nc1n[nH]c(N)c1/N=N/c1ccc(F)cc1` [Compound 3b, 3,5-diamino-4-(4-fluoro)phenylazo-pyrazole], the figures for the IC50 in data set [1] and in data set [2] were 24 µM and 25 µM, respectively.
In the case of `Nc1n[nH]c(N)c1/N=N/c1ccc(Cl)cc1` [Compound 4b, 3,5-diamino-4-(4-chloro)phenylazo-pyrazole], the 50% inhibitory concentration (IC50) in data set [1] is 45 µM; in data set [2], 60 µM.
In data set [2], `Nc1n[nH]c(N)c1/N=N/c1ccc(Br)cc1` [Compound 5b, 3,5-diamino-4-(4-bromo)phenylazo-pyrazole] gave an IC50 greater than 100 µM.
In data set [2], `Nc1n[nH]c(N)c1/N=N/c1ccc(I)cc1` [Compound 6b, 3,5-diamino-4-(4-iodo)phenylazo-pyrazole] came in with an IC50 greater than 100 µM.
Take `Nc1n[nH]c(N)c1/N=N/c1cccc([N+](=O)[O-])c1` [Compound 8b, 3,5-diamino-4-(3-nitro)phenylazo-pyrazole]: the IC50 in data set [2] was 4.8 µM; in data set [3] (Homo sapiens, K562, 72 h, Calcein AM, triplicates) it was 79 ± 6 µM; in data set [4] (Homo sapiens, G-361, 72 h, Calcein AM, triplicates) it was greater than 100 µM; in data set [5] (Homo sapiens, MCF7, 72 h, Calcein AM, triplicates), 65 ± 7 µM; in data set [6] (Homo sapiens, Calcein AM, triplicates) it was greater than 100 µM. For the same compound, the viability at 72 h, 100 µM in data set [7] (setting [8]) is 69%; in data set [7] (setting [9]) it was 95%; in data set [7] (setting [10]) it was 28%; in data set [7] (setting [11]), 44%.
Take `Nc1n[nH]c(N)c1/N=N/c1ccc([N+](=O)[O-])cc1` [Compound 9b, 3,5-diamino-4-(4-nitro)phenylazo-pyrazole]: the IC50 in data set [2] is 16 µM; in data set [3] (Homo sapiens, K562, 72 h), 71 ± 6 µM; in data set [4] (Homo sapiens, G-361, 72 h) it was greater than 100 µM; in data set [5] (Homo sapiens, MCF7, 72 h), greater than 100 µM; in data set [6] (Homo sapiens), greater than 100 µM. The viability at 72 h, 100 µM in data set [7] (setting [8]) is 61%; in data set [7] (setting [9]), 80%; in data set [7] (setting [10]) it was 25%; in data set [7] (setting [11]) it was 60%.
Turning to `Nc1n[nH]c(N)c1N=Nc1ccccc1C(=O)O` [Compound 13b, 3,5-diamino-4-(2-carboxy)phenylazo-pyrazole], the results for the IC50 in data set [1] and in data set [2] were 88 µM and 70 µM, respectively.
For `Nc1n[nH]c(N)c1N=Nc1cccc(C(=O)O)c1` [Compound 14b, 3,5-diamino-4-(3-carboxy)phenylazo-pyrazole], in that order: 27 µM and 34 µM.
In the case of `CC(=O)NS(=O)(=O)c1ccc(N=Nc2c(N)n[nH]c2N)cc1` [Compound 18b, N-({4-[(3,5-diamino-pyrazol-4-yl)azo]phenyl}sulfonyl)-acetamide], the “inhibition of the enzyme CDK2 (in words)” value in data set [1] is recorded as “failed to inhibit the enzyme”. The IC50 in data set [1] and in data set [2] was greater than 100 µM in each case.
Take `N=C(N)NS(=O)(=O)c1ccc(N=Nc2c(N)n[nH]c2N)cc1` [Compound 19b, N-[amino(imino)methyl]-4-[(3,5-diamino-pyrazol-4-yl)azo]-benzansulfonamide]: in data set [2], the half-inhibitory concentration (IC50) is greater than 100 µM.
Turning to `Nc1n[nH]c(N)c1N=Nc1ccc(S(=O)(=O)Nc2nccs2)cc1` [Compound 20b, 4-[(3,5-diaminopyrazol-4-yl)azo]-N-(thiazol-2-yl)-benzensulfonamide], the IC50 in data set [1] and in data set [2] was greater than 100 µM in each case.
`Cc1cc(C)nc(NS(=O)(=O)c2ccc(N=Nc3c(N)n[nH]c3N)cc2)n1` [Compound 21b, 4-[(3,5-diamino-pyrazol-4-yl)-azo]-N-(4,6-dimethylpyrimidin-2-yl)benzensulfonamide]: in data set [1], the “inhibition of the enzyme CDK2 (in words)” value is “failed to inhibit the enzyme” and the IC50 is greater than 100 µM. In data set [2], the IC50 is greater than 100 µM.
Turning to `COc1cnc(NS(=O)(=O)c2ccc(N=Nc3c(N)n[nH]c3N)cc2)nc1` [Compound 22b, 4-[(3,5-diamino-pyrazol-4-yl)-azo]-N-(5-methoxypyrimidin-2-yl)-benzensulfonamide], the IC50 in data set [1] and in data set [2] was greater than 100 µM each time.
As for `COc1ccc(NS(=O)(=O)c2ccc(N=Nc3c(N)n[nH]c3N)cc2)nn1` [Compound 23b, 4-[(3,5-diamino-pyrazol-4-yl)-azo]-N-(6-methoxypyridazin-3-yl)-benzensulfonamide], the 50% inhibitory concentration (IC50) in data set [1] and in data set [2] was greater than 100 µM throughout.
`Nc1n[nH]c(N)c1/N=N/c1ccc(-c2nc3ccccc3[nH]c2=O)cc1` [Compound 24b]: the IC50 in data set [1] and in data set [2] was greater than 100 µM in each case.
In the case of `Nc1n[nH]c(N)c1/N=N/c1ccccc1-c1nc2ccccc2[nH]c1=O` [Compound 25b], the IC50 in data set [1] and in data set [2] was greater than 100 µM each time.
In turn, `Nc1n[nH]c(N)c1N=Nc1ccccc1Cc1nc2ccccc2[nH]c1=O` [Compound 26b] showed a half-maximal inhibitory concentration (IC50) in data set [1] of 95 µM.
Take `Cc1cc2nc(Cc3ccccc3N=Nc3c(N)n[nH]c3N)c(=O)[nH]c2cc1C` [Compound 27b]: the concentration for half-maximal inhibition (IC50) in data set [1] and in data set [2] was greater than 100 µM each time.
As to `Nc1n[nH]c(N)c1N=Nc1cccc2ccccc12` [Compound 28b, 3,5-diamino-4-(naphth-1-yl)azo-pyrazole], the concentration for half-maximal inhibition (IC50) in data set [1] is 10 µM; in data set [2] it was 5.5 µM; in data set [3] (72 h, Calcein AM, triplicates), 50 ± 3 µM; in data set [4] (72 h, Calcein AM, triplicates), greater than 100 µM; in data set [5] (72 h, Calcein AM, triplicates), greater than 100 µM; in data set [6] (Calcein AM, triplicates) it was greater than 100 µM. Moreover, the “% of viable cells K562” value in data set [3] (72 h) is recorded as “(7.7 ± 6%)”. Also, the “% of viable cells G361” value in data set [4] (72 h) is on record as “(55 ± 14%)”. For the same compound, the “% of viable cells MCF7” value in data set [5] (72 h) is given as “(56 ± 1%)”. Moreover, in data set [6], the “% of viable cells HOS” value is on record as “(79 ± 8%)”.
Regarding `Nc1n[nH]c(N)c1N=Nc1ccc2ccccc2c1` [Compound 29b, 3,5-diamino-4-(naphth-2-yl)azo-pyrazole], the concentration for half-maximal inhibition (IC50) came out at 15 µM in data set [1] and 16 µM in data set [2].
Turning to `Cc1c(/N=N/c2c(N)n[nH]c2N)c(=O)n(-c2ccccc2)n1C` [Compound 31b], the IC50 in data set [1] and in data set [2] was greater than 100 µM in each case.
With `Nc1n[nH]c(N)c1/N=N/c1ccc(C(=O)c2ccc(/N=N/c3c(N)n[nH]c3N)cc2)cc1` [Compound 32d], the IC50 in data set [1] and in data set [2] was greater than 100 µM throughout.
`Nc1n[nH]c(N)c1/N=N/c1cccc(C(=O)c2cccc(/N=N/c3c(N)n[nH]c3N)c2)c1` [Compound 33d]: the half-maximal inhibitory concentration (IC50) in data set [1] and in data set [2] was greater than 100 µM throughout.
For `Nc1n[nH]c(N)c1/N=N/c1ccc(S(=O)(=O)c2ccc(/N=N/c3c(N)n[nH]c3N)cc2)cc1` [Compound 34d], the IC50 in data set [1] and in data set [2] was greater than 100 µM each time.
As to `Nc1n[nH]c(N)c1/N=N/c1cccc(S(=O)(=O)c2cccc(/N=N/c3c(N)n[nH]c3N)c2)c1` [Compound 35d], the concentration for half-maximal inhibition (IC50) in data set [1] and in data set [2] was greater than 100 µM throughout.

Source of the values: patent publication US8357673B2, “4-arylazo-3,5-diamino-pyrazole compounds and use thereof” (Univerzita Palackeho V Olomouci, priority 2004, dated 2013).
